Experiments:
KMT5A = molecular target: T1, KMT5A (Homo sapiens, UniProt Q9NQR1); experiment: CETSA in intact SW480 cells, KMT5A; assay type: cell-based; set-up: endogenous in cells; host or cells: SW480
T1 sequence (Q9NQR1 1-393): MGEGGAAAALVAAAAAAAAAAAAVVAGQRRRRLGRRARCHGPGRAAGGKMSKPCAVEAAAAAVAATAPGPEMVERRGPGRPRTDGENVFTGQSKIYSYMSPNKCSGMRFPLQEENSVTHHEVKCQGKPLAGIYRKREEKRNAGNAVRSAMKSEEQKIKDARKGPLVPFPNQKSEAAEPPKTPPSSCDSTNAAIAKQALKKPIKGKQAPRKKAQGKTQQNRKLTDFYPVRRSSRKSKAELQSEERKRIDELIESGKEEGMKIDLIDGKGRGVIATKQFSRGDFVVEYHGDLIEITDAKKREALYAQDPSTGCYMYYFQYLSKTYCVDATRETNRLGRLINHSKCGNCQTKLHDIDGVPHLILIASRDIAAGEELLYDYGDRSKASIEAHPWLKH
Procedure: For whole cell CETSA, the cells were incubated with 10/15 μM of compound 7b/8/8-N for 18 h. Then, cells were washed with cell culture medium, detached from the surface using trypsin, washed with PBS and the number of cells was determined. Cell concentration was adjusted to 3.6 × 10^7 cells/mL using in PBS with Complete (w/o EDTA, Roche) protease inhibitor. Then, cells were frozen in liquid nitrogen and thawed at 25 °C three times, before being divided in 16 aliquots. Each aliquot was heated to a defined temperature between 40 and 70 °C in a PCR cycler (16 well gradient, 55 °C ± 15). After 3 min incubation, aliquots were snap frozen in liquid nitrogen and thawed at 25 °C. Cell lysates were then centrifuged at 20,000 × g , 4 °C for 20 min. Supernatant were mixed with 5× loading buffer, heated to 70 °C for 5 min and analyzed by Western blotting essentially as previously described. For the CETSA performed with cell lysates, cells were directly harvested and lysed as described above. […]
Figure S4. […] Representative Western blots (A) and quantification (B) showing no obvious shifting melting temperatures (ΔT m) of endogenous KMT5A upon treatment with compound 7b compared to DMSO. […]
Representative Western blots (C) and quantification (D) showing no shifting melting temperatures (ΔT m) of endogenous KMT5A upon treatment with compound 8 compared to DMSO. […]

HepG2 cells = experiment: Cell proliferation assay, HepG2; assay type: cell-based, human; settings: vs DMSO

For `CCOC(=O)[C@@H](N)CCN(CCCNCCc1ccc(Oc2ccc(Cl)cc2)c(F)c1)C[C@H]1C[C@@H](n2ccc3c(NC)ncnc32)[C@H](O)[C@@H]1O` [compound 8, Ethyl (S)-2-amino-4-((3-((4-(4-chlorophenoxy)-3-fluorophenethyl)amino)propyl) (((1R,2R,3S,4R)-2,3-dihydroxy-4-(4-(methylamino)-7H-pyrrolo[2,3-d]pyrimidin-7-yl)cyclopentyl)methyl)amino)butanoate], the ΔTm at 10 µM (KMT5A) was -0.6 °C and the “Proliferation of HepG2 cells” value (HepG2 cells) was “did not affect cell proliferation”.
